# Test results published in ChEMBL document CHEMBL4354822, “Ligand-Based Design of Nondimethylphenyl-Diarylpyrimidines with Improved Metabolic Stability, Safety, and Oral Pharmacokinetic Profiles” (J Med Chem, 2019).
# Columns and labels:
# [1] = target: Human immunodeficiency virus type 1 reverse transcriptase (Human immunodeficiency virus 1, UniProt Q72547); assay: Inhibition of recombinant wild type HIV1 reverse transcriptase p66/p51 incubated for 40 mins by picogreen dye-based spectrofluorometric analysis
# [2] = tested on: Human immunodeficiency virus 1; assay: Antiviral activity against HIV1 harboring reverse transcriptase Y188L mutant infected in human MT4 cells assessed as reduction in virus-induced cytopathic effect incubated for 5 days by MTT assay; type: functional, organism-based; conditions: Human immunodeficiency virus 1, MT4, 120 h
# [3] = Selectivity index, ratio of CC50 for human MT4 cells to EC50 for antiviral activity against HIV1 3B infected in human MT4 cells incubated for 5 days by MTT assay; type: toxicity, cell-based; conditions: MT4 cells (uninfected for CC50; HIV-1 3B infected for EC50)
# MT4 = assay: Cytotoxicity against human MT4 cells assessed as reduction in cell viability incubated for 5 days by MTT assay; type: functional; conditions: MT4, 120 h
# [4] = tested on: Human immunodeficiency virus 1; assay: Antiviral activity against HIV1 3B infected in human MT4 cells incubated assessed as reduction in virus-induced cytopathic effect for 5 days by MTT assay; type: functional, organism-based; conditions: Human immunodeficiency virus 1, 3B, MT4, 120 h
# [5] = tested on: Human immunodeficiency virus 1; assay: Antiviral activity against HIV1 harboring reverse transcriptase K103N mutant infected in human MT4 cells assessed as reduction in virus-induced cytopathic effect incubated for 5 days by MTT assay; type: functional, organism-based; conditions: Human immunodeficiency virus 1, MT4, 120 h
# [6] = tested on: Human immunodeficiency virus 1; assay: Antiviral activity against HIV1 harboring reverse transcriptase Y181C mutant infected in human MT4 cells assessed as reduction in virus-induced cytopathic effect incubated for 5 days by MTT assay; type: functional, organism-based; conditions: Human immunodeficiency virus 1, MT4, 120 h
# [7] = tested on: Human immunodeficiency virus 1; assay: Antiviral activity against HIV1 harboring reverse transcriptase L100I mutant infected in human MT4 cells assessed as reduction in virus-induced cytopathic effect incubated for 5 days by MTT assay; type: functional, organism-based; conditions: Human immunodeficiency virus 1, MT4, 120 h
# [8] = tested on: Human immunodeficiency virus 1; assay: Antiviral activity against HIV1 harboring reverse transcriptase E138K mutant infected in human MT4 cells assessed as reduction in virus-induced cytopathic effect incubated for 5 days by MTT assay; type: functional, organism-based; conditions: Human immunodeficiency virus 1, MT4, 120 h
# [9] = target: Human immunodeficiency virus type 1 reverse transcriptase (Human immunodeficiency virus 1) (UniProt Q72547); assay: Ratio of IC50 for nevirapine to IC50 for test compound for recombinant wild type HIV1 reverse transcriptase p66/p51
# [10] = Aqueous solubility of compound at 2 mg measured for 24 hrs by HPLC analysis; type: physicochemical; conditions: aqueous medium
SMILES,IC50 [1] [µM],EC50 [2] [µM],selectivity ratio at 120 h [3],CC50 (MT4) [µM],EC50 [4] [µM],EC50 [5] [µM],EC50 [6] [µM],EC50 [7] [µM],EC50 [8] [µM],Ratio IC50 [9],solubility at 24 h [10] [µg/mL]
N#Cc1ccc(Nc2nccc(Oc3c(F)cc(-c4ccc(C#N)cc4)cc3F)n2)cc1,0.0132,> 294,> 89300,> 294,0.0033,0.0035,0.0235,0.0172,0.0052,21 to 109,–
N#Cc1ccc(Nc2nccc(Nc3c(F)cc(-c4ccc(C#N)cc4)cc3F)n2)cc1.O=S(=O)(O)O,–,–,–,–,–,–,–,–,–,–,0.36
O=C1Nc2ccc(Cl)cc2[C@@](C#CC2CC2)(C(F)(F)F)O1 [EFAVIRENZ],–,0.29,–,> 6.34,0.0074,0.102,0.0073,0.044,0.0063,–,–
N#Cc1ccc(Nc2nccc(Nc3ccc(-c4ccc(C#N)cc4)cc3F)n2)cc1,–,–,> 27300,308,0.0113,–,–,–,–,–,–
Cc1cc(-c2ccc(C#N)cc2)ccc1Oc1ccnc(Nc2ccc(C#N)cc2)n1,0.0055,14.4,> 122000,> 310,0.0025,0.0087,0.0184,0.0471,0.0062,21 to 109,–
N#Cc1ccc(Nc2nccc(Oc3ccc(-c4ccc(C#N)cc4)cc3F)n2)cc1,< 0.0037,> 307,> 172000,> 307,0.0018,0.0123,0.0491,0.0639,0.0064,21 to 109,–
N#Cc1ccc(Nc2nccc(Oc3ccc(-c4ccc(C#N)cc4Cl)cc3Cl)n2)cc1,–,–,> 55,> 273,4.99,–,–,–,–,–,–
N#Cc1ccc(Nc2nccc(Oc3ccc(-c4ccc(C#N)cc4)c(F)c3)n2)cc1,–,–,> 98000,> 307,0.0032,–,–,–,–,–,–
N#Cc1ccc(Nc2nccc(Nc3c(F)cc(-c4ccc(C#N)cc4)cc3F)n2)cc1,–,–,–,–,–,–,–,–,–,21 to 109,–
N#Cc1ccc(Nc2nccc(Oc3ccc(-c4ccc(C#N)c(F)c4)cc3F)n2)cc1,–,–,> 2430,> 294,0.12,–,–,–,–,–,–
CS(=O)(=O)O.N#Cc1ccc(Nc2nccc(Nc3c(F)cc(-c4ccc(C#N)cc4)cc3F)n2)cc1,–,–,–,–,–,–,–,–,–,–,0.88
N#Cc1ccc(Nc2nccc(Oc3ccc(-c4ccc(C#N)cc4)c(Cl)c3)n2)cc1,–,–,3130,31.1,0.0099,–,–,–,–,–,–
Cc1cc(-c2ccc(C#N)cc2)c(Cl)cc1Oc1ccnc(Nc2ccc(C#N)cc2)n1,0.0188,> 286,> 63300,> 286,0.0046,0.0037,0.032,0.0085,0.0119,21 to 109,–
N#Cc1ccc(Nc2nccc(Oc3ccc(-c4ccc(C#N)cc4)c(F)c3F)n2)cc1,–,–,> 19200,> 294,0.0153,–,–,–,–,–,–
COc1cc(-c2ccc(C#N)cc2)ccc1Nc1ccnc(Nc2ccc(C#N)cc2)n1,0.006,> 299,> 106000,> 299,0.0029,0.0184,0.158,0.122,0.0074,21 to 109,–
N#Cc1ccc(Nc2nccc(Oc3ccc(-c4ccc(C#N)cc4)cc3Cl)n2)cc1,0.0083,0.33,> 179000,> 295,0.0017,< 0.0038,0.0137,0.0113,< 0.0038,21 to 109,–
COc1cc(Nc2ccnc(Nc3ccc(C#N)cc3)n2)ccc1-c1ccc(C#N)cc1,–,–,304,5.26,0.0175,–,–,–,–,–,–
Cc1ccnc2c1NC(=O)c1cccnc1N2C1CC1 [NEVIRAPINE],–,–,–,> 15,–,> 10.1,> 15.9,2.1,–,–,–
